The values below come from publication PMC9329436, “Optimization of the 4-anilinoquin(az)oline scaffold as epidermal growth factor receptor (EGFR) inhibitors for chordoma utilizing a toxicology profiling assay platform” (Scientific Reports, 2022).

Molecules are shown by their SMILES. Read-outs that look alike come from different tables or passages of the source.

Common to all, as to assay type: biochemical
The target in test [1] is 320 wild-type protein kinases (Homo sapiens, UniProt P42345). The settings on record: mTOR, singlicate. From the text: (§1) Table S4. Profiling of two compounds at two concentrations against 320 wild-type protein kinases; singlicate measurement; Residual activities (% of control).
For test [2], the target named is 320 wild-type protein kinases (Homo sapiens, UniProt P23458). To be noted: JAK1 aa583-1154 wt, singlicate.
Description: as §1

The target in test [3] is T1, 320 wild-type protein kinases (Homo sapiens, UniProt Q13163).
T1 sequence (Q13163 1-448): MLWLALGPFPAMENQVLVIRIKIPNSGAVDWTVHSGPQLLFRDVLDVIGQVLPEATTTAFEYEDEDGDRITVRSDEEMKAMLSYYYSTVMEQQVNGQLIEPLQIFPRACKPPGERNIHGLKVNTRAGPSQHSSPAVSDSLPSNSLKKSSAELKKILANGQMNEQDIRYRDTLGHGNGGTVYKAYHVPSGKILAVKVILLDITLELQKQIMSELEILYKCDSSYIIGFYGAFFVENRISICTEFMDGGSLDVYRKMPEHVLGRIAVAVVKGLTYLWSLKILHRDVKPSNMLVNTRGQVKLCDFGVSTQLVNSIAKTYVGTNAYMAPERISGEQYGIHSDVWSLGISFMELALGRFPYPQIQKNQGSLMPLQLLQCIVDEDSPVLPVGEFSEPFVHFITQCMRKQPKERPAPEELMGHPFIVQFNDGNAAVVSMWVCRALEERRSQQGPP
To be noted: singlicate.
Description: as §1

The target of test [4] is T2, 320 wild-type protein kinases (Homo sapiens, UniProt Q13188).
T2 sequence (Q13188 1-491): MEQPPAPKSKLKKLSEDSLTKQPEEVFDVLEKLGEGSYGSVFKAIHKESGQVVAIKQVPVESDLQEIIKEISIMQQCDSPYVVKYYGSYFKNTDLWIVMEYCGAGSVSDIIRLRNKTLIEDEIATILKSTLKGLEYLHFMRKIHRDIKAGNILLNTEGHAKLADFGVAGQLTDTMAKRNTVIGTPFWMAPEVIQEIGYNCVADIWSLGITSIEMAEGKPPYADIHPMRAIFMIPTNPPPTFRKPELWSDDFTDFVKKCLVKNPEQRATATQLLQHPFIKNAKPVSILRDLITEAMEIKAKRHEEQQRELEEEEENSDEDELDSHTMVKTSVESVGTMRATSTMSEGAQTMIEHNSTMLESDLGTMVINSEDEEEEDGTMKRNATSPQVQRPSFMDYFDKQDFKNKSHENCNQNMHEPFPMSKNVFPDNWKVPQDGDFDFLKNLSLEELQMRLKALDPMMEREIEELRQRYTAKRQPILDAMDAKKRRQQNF
The settings on record: singlicate.
Description: as §1

The target in test [5] is 320 wild-type protein kinases (Homo sapiens, UniProt Q96RG2). The settings on record: PASK, singlicate.
Description: as §1

Test [6] has as its target 320 wild-type protein kinases (Homo sapiens, UniProt Q15418). The settings on record: kinase RPS6KA1, singlicate.
Description: as §1

Test [7] concerns the target T3, 320 wild-type protein kinases (Homo sapiens, UniProt P51956).
T3 sequence (P51956 1-506): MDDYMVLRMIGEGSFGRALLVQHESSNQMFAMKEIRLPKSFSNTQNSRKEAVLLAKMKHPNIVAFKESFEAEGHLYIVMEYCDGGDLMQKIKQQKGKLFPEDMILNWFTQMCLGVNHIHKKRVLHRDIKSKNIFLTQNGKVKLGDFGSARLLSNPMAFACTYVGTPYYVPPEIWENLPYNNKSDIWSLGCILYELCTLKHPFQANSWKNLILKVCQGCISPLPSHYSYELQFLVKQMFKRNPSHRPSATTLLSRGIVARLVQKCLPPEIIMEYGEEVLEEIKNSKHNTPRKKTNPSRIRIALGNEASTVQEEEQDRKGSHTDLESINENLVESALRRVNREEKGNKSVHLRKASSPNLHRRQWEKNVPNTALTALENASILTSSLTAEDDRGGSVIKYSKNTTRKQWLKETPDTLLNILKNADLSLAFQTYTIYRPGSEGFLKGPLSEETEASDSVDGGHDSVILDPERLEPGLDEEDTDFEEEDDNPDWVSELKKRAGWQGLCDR
To be noted: singlicate.
Description: as §1

For test [8], the target named is T4, 320 wild-type protein kinases (Homo sapiens, UniProt P42681).
T4 sequence (P42681 1-527): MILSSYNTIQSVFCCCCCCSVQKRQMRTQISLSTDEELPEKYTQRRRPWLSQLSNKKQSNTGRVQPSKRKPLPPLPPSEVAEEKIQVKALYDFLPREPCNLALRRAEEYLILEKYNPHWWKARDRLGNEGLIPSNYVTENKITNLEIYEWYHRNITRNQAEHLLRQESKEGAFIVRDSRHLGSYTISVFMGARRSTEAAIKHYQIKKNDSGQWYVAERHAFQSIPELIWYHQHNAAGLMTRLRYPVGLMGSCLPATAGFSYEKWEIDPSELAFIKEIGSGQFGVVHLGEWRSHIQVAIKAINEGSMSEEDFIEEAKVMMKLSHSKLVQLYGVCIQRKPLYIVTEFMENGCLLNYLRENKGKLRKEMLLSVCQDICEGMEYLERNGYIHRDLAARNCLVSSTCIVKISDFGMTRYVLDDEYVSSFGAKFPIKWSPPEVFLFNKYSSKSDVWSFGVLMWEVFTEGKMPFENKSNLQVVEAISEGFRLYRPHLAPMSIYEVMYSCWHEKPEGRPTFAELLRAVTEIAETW
The settings on record: kinase TXK, singlicate.
Description: as §1

Sequence of 320 wild-type protein kinases (Homo sapiens, UniProt P23458) (P23458 whole entry, the tested form may be a part): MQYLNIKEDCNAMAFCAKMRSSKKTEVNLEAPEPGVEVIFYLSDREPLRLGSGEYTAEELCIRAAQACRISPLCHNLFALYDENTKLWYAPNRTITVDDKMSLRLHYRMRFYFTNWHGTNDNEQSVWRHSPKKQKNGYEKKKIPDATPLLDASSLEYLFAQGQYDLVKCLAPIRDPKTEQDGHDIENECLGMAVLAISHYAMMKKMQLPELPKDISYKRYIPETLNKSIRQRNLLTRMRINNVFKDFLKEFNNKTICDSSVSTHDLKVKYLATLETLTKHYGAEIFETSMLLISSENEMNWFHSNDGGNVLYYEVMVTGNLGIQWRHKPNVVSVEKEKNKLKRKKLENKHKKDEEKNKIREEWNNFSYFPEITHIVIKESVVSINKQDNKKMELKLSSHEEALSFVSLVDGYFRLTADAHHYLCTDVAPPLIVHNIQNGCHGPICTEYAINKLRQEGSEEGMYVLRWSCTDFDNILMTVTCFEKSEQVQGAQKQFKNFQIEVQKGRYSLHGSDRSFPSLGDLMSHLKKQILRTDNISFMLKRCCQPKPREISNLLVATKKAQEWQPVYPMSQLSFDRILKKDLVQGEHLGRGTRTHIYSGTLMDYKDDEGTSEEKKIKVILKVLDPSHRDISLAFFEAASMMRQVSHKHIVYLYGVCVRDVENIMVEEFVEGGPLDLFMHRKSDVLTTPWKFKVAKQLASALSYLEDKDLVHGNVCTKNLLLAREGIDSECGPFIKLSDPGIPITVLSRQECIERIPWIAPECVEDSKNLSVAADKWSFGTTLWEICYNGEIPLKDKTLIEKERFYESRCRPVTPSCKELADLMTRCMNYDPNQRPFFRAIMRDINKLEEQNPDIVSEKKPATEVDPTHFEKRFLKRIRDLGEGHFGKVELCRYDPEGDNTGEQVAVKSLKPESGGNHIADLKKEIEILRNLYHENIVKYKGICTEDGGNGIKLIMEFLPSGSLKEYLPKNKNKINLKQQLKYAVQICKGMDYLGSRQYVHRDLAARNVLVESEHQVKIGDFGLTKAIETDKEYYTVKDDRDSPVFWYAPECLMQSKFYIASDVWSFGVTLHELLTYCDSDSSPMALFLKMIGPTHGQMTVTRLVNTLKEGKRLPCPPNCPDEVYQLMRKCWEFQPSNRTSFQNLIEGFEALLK
Sequence of 320 wild-type protein kinases (Homo sapiens, UniProt Q15418) (Q15418 whole entry): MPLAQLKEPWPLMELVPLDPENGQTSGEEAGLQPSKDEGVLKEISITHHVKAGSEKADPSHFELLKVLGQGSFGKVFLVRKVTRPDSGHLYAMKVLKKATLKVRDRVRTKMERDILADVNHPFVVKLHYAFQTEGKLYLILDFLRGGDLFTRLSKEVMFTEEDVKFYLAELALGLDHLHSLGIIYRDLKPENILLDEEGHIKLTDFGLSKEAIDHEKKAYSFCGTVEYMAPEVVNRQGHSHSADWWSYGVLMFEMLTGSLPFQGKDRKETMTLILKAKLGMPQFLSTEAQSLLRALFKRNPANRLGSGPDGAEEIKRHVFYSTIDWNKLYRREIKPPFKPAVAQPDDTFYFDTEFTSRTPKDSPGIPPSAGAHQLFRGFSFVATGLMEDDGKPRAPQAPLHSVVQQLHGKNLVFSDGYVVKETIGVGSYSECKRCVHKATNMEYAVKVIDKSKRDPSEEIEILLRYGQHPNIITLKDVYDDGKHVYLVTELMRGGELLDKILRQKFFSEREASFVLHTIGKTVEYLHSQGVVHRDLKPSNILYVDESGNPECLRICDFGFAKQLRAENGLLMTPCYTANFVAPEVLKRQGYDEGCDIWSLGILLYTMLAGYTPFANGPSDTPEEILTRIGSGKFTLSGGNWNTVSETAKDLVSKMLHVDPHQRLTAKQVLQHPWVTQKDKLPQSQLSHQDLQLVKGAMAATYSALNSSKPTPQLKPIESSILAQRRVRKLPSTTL
Sequence of 320 wild-type protein kinases (Homo sapiens, UniProt Q96RG2) (Q96RG2 whole entry): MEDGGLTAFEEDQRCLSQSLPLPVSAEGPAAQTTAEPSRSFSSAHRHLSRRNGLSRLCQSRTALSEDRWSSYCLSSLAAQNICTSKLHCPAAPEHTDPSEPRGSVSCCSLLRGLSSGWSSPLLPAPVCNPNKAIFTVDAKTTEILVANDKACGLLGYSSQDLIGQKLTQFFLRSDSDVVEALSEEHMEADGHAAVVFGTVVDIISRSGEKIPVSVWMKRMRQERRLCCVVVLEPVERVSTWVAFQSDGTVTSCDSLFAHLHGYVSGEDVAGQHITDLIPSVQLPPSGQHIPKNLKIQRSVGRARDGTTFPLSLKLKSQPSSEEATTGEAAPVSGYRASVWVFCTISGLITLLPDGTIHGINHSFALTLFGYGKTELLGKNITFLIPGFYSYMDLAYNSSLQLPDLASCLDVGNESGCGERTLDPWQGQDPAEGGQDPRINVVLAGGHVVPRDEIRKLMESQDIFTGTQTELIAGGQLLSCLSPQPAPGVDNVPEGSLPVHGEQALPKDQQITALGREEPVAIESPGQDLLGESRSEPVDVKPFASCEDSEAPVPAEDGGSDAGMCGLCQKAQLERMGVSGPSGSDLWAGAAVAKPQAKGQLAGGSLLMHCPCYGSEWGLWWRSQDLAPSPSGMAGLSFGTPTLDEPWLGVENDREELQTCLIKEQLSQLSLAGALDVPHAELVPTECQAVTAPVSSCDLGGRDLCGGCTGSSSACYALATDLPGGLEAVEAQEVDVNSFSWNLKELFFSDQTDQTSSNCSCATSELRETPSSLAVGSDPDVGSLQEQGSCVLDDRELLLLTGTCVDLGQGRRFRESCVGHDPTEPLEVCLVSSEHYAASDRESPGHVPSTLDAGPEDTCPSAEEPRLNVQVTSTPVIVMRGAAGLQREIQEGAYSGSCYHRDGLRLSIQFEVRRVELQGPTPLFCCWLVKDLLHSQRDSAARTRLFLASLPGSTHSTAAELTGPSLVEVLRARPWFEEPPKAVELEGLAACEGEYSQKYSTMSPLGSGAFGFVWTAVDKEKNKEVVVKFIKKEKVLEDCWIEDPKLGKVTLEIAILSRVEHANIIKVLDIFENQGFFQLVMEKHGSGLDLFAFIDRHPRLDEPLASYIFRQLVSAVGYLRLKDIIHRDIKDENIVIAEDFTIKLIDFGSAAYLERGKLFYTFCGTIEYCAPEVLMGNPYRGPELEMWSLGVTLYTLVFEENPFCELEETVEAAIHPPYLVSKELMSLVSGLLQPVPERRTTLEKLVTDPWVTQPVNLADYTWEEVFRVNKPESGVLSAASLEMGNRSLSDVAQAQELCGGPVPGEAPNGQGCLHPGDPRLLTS

In the case of `C#Cc1cc(Nc2ncnc3cc(OC)c(OC)cc23)ccc1Cl` [Compound 45], the Residual activity in test [1] (1.0E-06 M) is on record as 91 % of control; in test [1] (1.0E-07 M) it was 106 % of control; in test [2] (1.0E-06 M), 102 % of control; in test [2] (1.0E-07 M), 111 % of control; in test [3] (MEK5, 1.0E-06 M), 108 % of control; in test [3] (MEK5, 1.0E-07 M), 107 % of control. In addition, the Residual activity is 102 % of control in test [4] (MST2, 1.0E-06 M); 103 % of control in test [4] (MST2, 1.0E-07 M); 93 % of control in test [5] (1.0E-06 M); 98 % of control in test [5] (1.0E-07 M); 113 % of control in test [7] (NEK3, 1.0E-06 M); 101 % of control in test [7] (NEK3, 1.0E-07 M). Moreover, the “Residual activity, RPS6KA1” value in test [6] (assay conc. 1.0E-06 M) is given as 74 % of control; in test [6] (assay conc. 1.0E-07 M), 88 % of control. In addition, the results for the “Residual activity, TXK” value in test [8] (assay conc. 1.0E-06 M) and in test [8] (assay conc. 1.0E-07 M) were 52 % of control and 91 % of control, respectively.

On to `C#Cc1cc(Nc2ncnc3cc(I)ccc23)ccc1Cl` [Compound 41], for which the Residual activity in test [1] (1.0E-06 M) is on record as 84 % of control; in test [1] (1.0E-07 M) it was 97 % of control; in test [2] (1.0E-06 M), 90 % of control; in test [2] (1.0E-07 M), 98 % of control; in test [3] (MEK5, 1.0E-06 M), 100 % of control; in test [3] (MEK5, 1.0E-07 M), 103 % of control. For the same molecule, the Residual activity was 102 % of control in test [4] (MST2, 1.0E-06 M); 113 % of control in test [4] (MST2, 1.0E-07 M); 101 % of control in test [5] (1.0E-06 M); 102 % of control in test [5] (1.0E-07 M); 103 % of control in test [7] (NEK3, 1.0E-06 M); 110 % of control in test [7] (NEK3, 1.0E-07 M). Also, the figures for the “Residual activity, RPS6KA1” value in test [6] (assay conc. 1.0E-06 M) and in test [6] (assay conc. 1.0E-07 M) were 99 % of control and 103 % of control, respectively. In addition, the “Residual activity, TXK” value in test [8] (assay conc. 1.0E-06 M) is on record as 79 % of control; in test [8] (assay conc. 1.0E-07 M) it was 90 % of control.
